For one assay, the target named is T1, 2xSUMO2ΔN11 (di-SUMO2) (Homo sapiens, UniProt P61956).
T1 construct: Each monomer in these chains is separated by RS replacing the natural GG motif; a C-terminal GG motif and a stop codon; GST (N, cleaved yes); made in house; host or cells: E. coli Rosetta 2(DE3)pLysS
In words: ITC binding to linear di-SUMO2 (2xSUMO2ΔN11). The following applies: linear di-SUMO2. An excerpt:
(§1) For expression in Escherichia coli, linear poly-SUMO chains were generated as described previously with slight modifications. After the combined PCR/ligation reaction, the 4×SUMO2-ΔN11 or 4×SUMO1-ΔN15 DNA polymers were separated from smaller polymers by agarose gel electrophoresis and individually extracted (Macherey–Nagel). These were then subjected to a second PCR with primers to create BamHI and XhoI restriction sites, a C-terminal GG motif and a stop codon. The resulting fragments coding for di-, tri- and tetra-SUMO2-ΔN11 or SUMO1-ΔN15 chains were amplified and cloned into pGEX-4T2. […] Each monomer in these chains is separated by RS replacing the natural GG motif. A similar strategy was used to design C-terminally GFP–HA2-tagged linear poly-SUMOs in the copper-inducible Ycplac22 vector for expression in S. cerevisiae. […]
(§2) The mono-SUMOs and linear poly-SUMO1 and poly-SUMO2 proteins as well as all RNF4 constructs were expressed as GST-fusion proteins from E. coli Rosetta™ 2(DE3)pLysS cells (Novagen) cultivated in LB medium with 100 μg/ml ampicillin and 30 μg/ml chloramphenicol after induction with 0.1 mM IPTG at 20°C for 12 h. […]
(§3) Binding of peptides and proteins to SUMOs was investigated by ITC using either a VP-ITC or an ITC200 (GE Healthcare). […] Protein concentrations were determined by measuring the absorption at 280 nm. […]

The next assay deals with T2, 1xSUMO2ΔN11 (mono-SUMO2) (Homo sapiens, UniProt P61956).
T2 construct: a C-terminal GG motif and a stop codon; GST (N, cleaved yes); made in house; host or cells: E. coli Rosetta 2(DE3)pLysS
T2 sequence (P61956 12-93 limits assumed, stated change not applied): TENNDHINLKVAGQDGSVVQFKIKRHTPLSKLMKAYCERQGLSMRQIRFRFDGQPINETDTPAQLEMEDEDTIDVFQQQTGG
In words: ITC binding to mono-SUMO2 (1xSUMO2ΔN11).
Excerpt: as §1, §2, §3

Peptide text beside a SMILES is read from it.

T1 sequence (P61956 with tags, fused parts or gaps): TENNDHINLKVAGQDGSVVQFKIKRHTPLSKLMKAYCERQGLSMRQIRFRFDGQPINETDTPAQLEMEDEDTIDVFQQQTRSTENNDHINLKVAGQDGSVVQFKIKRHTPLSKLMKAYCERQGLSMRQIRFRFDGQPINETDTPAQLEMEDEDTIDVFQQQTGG

On to `CC[C@H](C)[C@H](NC(=O)[C@@H](NC(=O)[C@H](CCC(=O)O)NC(=O)[C@H](CO)NC(=O)[C@H](CO)NC(=O)[C@H](CO)NC(=O)[C@H](CO)NC(=O)[C@H](CC(=O)O)NC(=O)[C@@H](NC(=O)[C@@H](NC(=O)[C@H](CC(C)C)NC(=O)[C@H](CC(=O)O)NC(=O)[C@@H](NC(=O)[C@@H](NC(=O)[C@H](CCC(=O)O)NC(=O)[C@@H](NC(=O)[C@H](CCCCN)NC(=O)[C@@H](N)CCCCN)C(C)C)C(C)C)[C@@H](C)CC)[C@@H](C)O)[C@@H](C)CC)C(C)C)C(=O)N[C@@H](CC(=O)O)C(=O)N[C@@H](CC(C)C)C(=O)N[C@H](C(=O)N[C@H](C(=O)N[C@@H](CC(=O)O)C(=O)N[C@@H](CO)C(=O)N[C@@H](CO)C(=O)O)[C@@H](C)CC)[C@@H](C)O` [2xPIAS1pep, reference compound] (H-KKVEVIDLTIDSSSSEVIDLTIDSS-OH; N-terminus and C-terminus assumed), for which the “affinity for di-SUMO2” value at 2xSUMO2ΔN11 (di-SUMO2) is reported as “exceeded the affinities of the RNF4-SIM2/3 peptide”.

With `CC[C@H](C)[C@H](NC(=O)[C@@H](NC(=O)[C@H](CCC(=O)O)NC(=O)[C@@H](NC(=O)[C@H](CCCCN)NC(=O)[C@@H](N)CCCCN)C(C)C)C(C)C)C(=O)N[C@@H](CC(=O)O)C(=O)N[C@@H](CC(C)C)C(=O)N[C@H](C(=O)N[C@H](C(=O)N[C@@H](CC(=O)O)C(=O)N[C@@H](CO)C(=O)N[C@@H](CO)C(=O)N[C@@H](CO)C(=O)N[C@@H](CC(=O)O)C(=O)N[C@@H](CCC(=O)O)C(=O)O)[C@@H](C)CC)[C@@H](C)O` [PIAS1pep] (H-KKVEVIDLTIDSSSDE-OH; N-terminus and C-terminus assumed), the “affinity for mono-SUMO2” value on 1xSUMO2ΔN11 (mono-SUMO2) was “much stronger than the binding of any RNF4-derived tandem SIM peptide”.

With `CC[C@H](C)[C@H](NC(=O)[C@H](CCC(=O)O)NC(=O)[C@H](CC(=O)O)NC(=O)CN)C(=O)N[C@H](C(=O)N[C@@H](CC(=O)O)C(=O)N[C@@H](CC(C)C)C(=O)N[C@H](C(=O)N[C@@H](CS)C(=O)N[C@@H](CCC(=O)O)C(=O)N[C@@H](CO)C(=O)N[C@@H](CC(C)C)C(=O)N[C@@H](CCC(=O)O)C(=O)N1CCC[C@H]1C(=O)N[C@H](C(=O)N[C@H](C(=O)N[C@H](C(=O)N[C@@H](CC(=O)O)C(=O)N[C@@H](CC(C)C)C(=O)N[C@H](C(=O)N[C@@H](Cc1c[nH]cn1)C(=O)N[C@@H](CC(N)=O)C(=O)N[C@@H](CC(=O)O)C(=O)N[C@@H](CO)C(=O)O)[C@@H](C)O)C(C)C)C(C)C)C(C)C)[C@@H](C)O)C(C)C` [RNF4-SIM2/3pep] (H-GDEIVDLTCESLEPVVVDLTHNDS-OH; N-terminus and C-terminus assumed), on 2xSUMO2ΔN11 (di-SUMO2), the “affinity for di-SUMO2” value was “very similar to the one of the whole RNF4-SIM domain for di-SUMO2”.
